Here are results for two molecules from article PMC11620506, “Inhibition of endocytic uptake of severe acute respiratory syndrome coronavirus 2 and endo-lysosomal acidification by diphenoxylate” (Antimicrobial Agents and Chemotherapy, 2024).

Series [1] relates to SARS-CoV-2 Omicron, GRA(B.1.1.529), hCoV-19/Korea/KDCA447321/2021. Conditions: Vero cells.
The test system of series [2] is SARS-CoV-2 Beta, GH(B.1.351), hCoV-19/Korea/KDCA55905/2021. Conditions: Vero cells.
Series [3] relates to SARS-CoV-2 Delta, G(B.1.617.2), hCoV-19/Korea/KDCA119861/2021. The experiment in a line: microbe, parasite or virus in culture. Conditions: Severe acute respiratory syndrome coronavirus 2, Vero.
The test system of series [4] is SARS-CoV-2 Alpha, GR(B.1.1.7), hCoV-19/Korea/KDCA51463/2021. The experiment in a line: microbe, parasite or virus in culture. Conditions: Severe acute respiratory syndrome coronavirus 2, Vero.
Series [5] concerns SARS-CoV-2 Gamma, GR(P.1), hCoV-19/Korea/KDCA95637/2021. The series is described as follows: microbe, parasite or virus in culture. The conditions noted are these: Severe acute respiratory syndrome coronavirus 2, Vero.
Series [6] has as its system SARS-CoV-2 Delta, G(B.1.617.2), hCoV-19/Korea/KDCA119861/2021. Conditions: Vero cells.
In series [7] the test system is SARS-CoV-2 Gamma, GR(P.1), hCoV-19/Korea/KDCA95637/2021. Conditions: for SI, ratio of CC50 to EC50: Gamma, Vero cells.
In series [8] the test system is SARS-CoV-2 Omicron, GRA(B.1.1.529), hCoV-19/Korea/KDCA447321/2021. The series is described as follows: microbe, parasite or virus in culture. The conditions noted are these: Severe acute respiratory syndrome coronavirus 2, Vero.
Series [9] has as its system SARS-CoV-2 Beta, GH(B.1.351), hCoV-19/Korea/KDCA55905/2021. The series is described as follows: microbe, parasite or virus in culture. Conditions: Severe acute respiratory syndrome coronavirus 2, Vero.
Series [10] deals with SARS-CoV-2 Alpha, GR(B.1.1.7), hCoV-19/Korea/KDCA51463/2021. Conditions: Vero cells.

The EC50 is the concentration that produces a half-maximal response. Higher therefore signals a less potent agent.

On to `CCOC(=O)C1(c2ccccc2)CCN(CCC(C#N)(c2ccccc2)c2ccccc2)CC1` [Diphenoxylate, diphenoxylate], for which the “SI, ratio of CC50 to EC50” value in [1] was greater than 31.3; in series [2] it was greater than 20.4; in series [6], greater than 36.2; in [7] it was greater than 68.0; in series [10], greater than 52.5. For the same molecule, the EC50 turned out to be 2.8 ± 0.6 µM in [3]; 1.9 ± 0.2 µM in series [4]; 1.5 ± 0.1 µM in series [5]; 3200 ± 600 nM in series [8]; 4.9 ± 0.3 µM in series [9]. In addition, in series [7], the “potency relative to remdesivir (times more potent)” value was “up to 6.5 times”.
Regarding `CCC(CC)COC(=O)[C@H](C)N[P@](=O)(OC[C@H]1O[C@@](C#N)(c2ccc3c(N)ncnn23)[C@H](O)[C@@H]1O)Oc1ccccc1` [RDV, remdesivir], the “SI, ratio of CC50 to EC50” value was greater than 60.7 in series [1], greater than 8.2 in series [2], greater than 23.6 in series [6] and greater than 10.3 in series [7]. Further, the EC50 in [3] worked out at 4.2 µM; in [4], 7 ± 1 µM; in series [5], 9.7 ± 0.7 µM; in series [8], 1600 ± 500 nM; in series [9], 12.2 ± 0.4 µM.
